Test results reported in patent US20060167019A1, “Fungicidal mixtures based on a trizolopyrimidine derivative” (priority 2003, published 2006).

Test system: Plasmopara viticola
Test: Activity against peronospora of grapevines caused by Plasmopara viticola (protective spray on potted vines)
Assay type: in vivo
Conditions: individual active compound, potted vines cultivar Müller-Thurgau, untreated control 84% infection
Protocol: The active compounds, separately or jointly, were prepared as a stock solution comprising 0.25% by weight of active compound in acetone or DMSO. 1% by weight of the emulsifier Uniperol® EL (wetting agent having emulsifying and dispersant action based on ethoxylated alkylphenols) was added to this solution, and the mixture was diluted with water to the desired concentration.
Leaves of potted vines of the cultivar “Müller-Thurgau” were sprayed to runoff point with an aqueous suspension having the concentration of active compound stated below. The next day, the undersides of the leaves were inoculated with an aqueous zoospore suspension of Plasmopara viticola. The grapevines were then initially placed in a water-vapor-saturated chamber at 24° C. for 48 hours and then in a greenhouse at 20-30° C. for 5 days. After this period of time, the plants were again placed in a humid chamber for 16 hours to promote sporangiophore eruption. The extent of the development of the disease on the undersides of the leaves was then determined visually.
The visually determined percentages of infected leaf areas were converted into efficacies in % of the untreated control:
The efficacy (E) is calculated as follows using Abbot's formula: E=(1−α/β)−100 α corresponds to the fungicidal infection of the treated plants in % and β corresponds to the fungicidal infection of the untreated (control) plants in %
An efficacy of 0 means that the infection level of the treated plants corresponds to that of the untreated control plants; an efficacy of 100 means that the treated plants are not infected.
The expected efficacies of mixtures of active compounds were determined using Colby's formula (Colby, S. R. “Calculating synergistic and antagonistic responses of herbicide combinations”, Weeds, 15, 20-22, 1967) and compared with the observed efficacies.
Colby's formula: E=x+y−x·y/100 • E expected efficacy, expressed in % of the untreated control, when using the mixture of the active compounds A and B at the concentrations a and b • x efficacy, expressed in % of the untreated control, when using the active compound A at the concentration a • y efficacy, expressed in % of the untreated control, when using the active compound B at the concentration b

Row | Compound | Efficacy in % of the untreated control (0.25 ppm in the spray liquor) | Efficacy in % of the untreated control (1 ppm in the spray liquor)
1 | CC1CCN(c2c(-c3c(F)cccc3Cl)c(Cl)nc3ncnn23)CC1 [Comparison A] | 0% | 0%
2 | C[C@H](Nc1c(-c2c(F)cc(F)cc2F)c(Cl)nc2ncnn12)C(F)(F)F [Comparison B] | 5% | 17%
3 | CC1CCN(c2c(-c3c(F)cc(F)cc3F)c(Cl)nc3ncnn23)CC1 [I, 5-chloro-7-(4-methylpiperidin-1-yl)-6-(2,4,6-trifluorophenyl)-[1,2,4]triazolo[1,5-a]pyrimidine] | 0% | 17%
